Laboratory results taken from patent publication US9815850B2, “Compounds, compositions and methods” (Denali Therapeutics Inc., priority 2016, dated 2017).
Read-outs that look alike come from different tables or passages of the source.

Key:
[1] = male, cynomolgus monkey, in vivo
[2] = tested on: human cryopreserved hepatocytes; test: Metabolic stability (hepatocytes); type: in vitro ADME; settings: well-stirred model
From the text: Hepatic clearance is expressed as mL/min/kg.

TNF/zVAD [3] = settings: dose of 30 mg/kg, Table 2 of WO 2014/125444; cited from earlier work
[4] = tested on: human cryopreserved hepatocytes; test: Metabolic stability (hepatocytes); type: in vitro ADME; settings: from human CLhep
[5] = male, Sprague-Dawley Crl:CD(SD), in vivo
[6] = male, Beagle, in vivo
[7] = biological target: P-gp (P-glycoprotein, MDR1) (Homo sapiens (Human), UniProt P08183); test: MDCKII-MDR1 permeability, efflux ratio; type: in vitro ADME; settings: dog, MDCK-MDR1, pH 7.4, MDCKII-MDR1 cells, read-out: ER MDR1
Procedure: The blood brain barrier (BBB) separates circulating blood from the extracellular fluid of the central nervous system (CNS). The passive membrane permeability (Papp) and the P-gp (P-glycoprotein) substrate efflux potential were determined using the MDCKII-MDR1 cell line as an in vitro model of the effective permeability of a compound through the BBB. A bidirectional assay (Apical to Basolateral (A→B) and Basolateral to Apical (B→A)), in the absence and in the presence of GF120918 (a P-gp inhibitor) was conducted using pre-plated MDCKII-MDR1 cells (Corning HTS Transwell-96) obtained from SOLVO Biotechnology. The assay was run at 3 μM for 90 min (minutes) in triplicate using a HBSS+12.5 mM HEPES pH 7.4 transport buffer. Following incubation of samples from donor and receiver, wells were removed and measured by LC-MS/MS. Samples were extracted by protein precipitation with acetonitrile containing an appropriate internal standard (IS) having a known mass and molecular weight. The precipitate was centrifuged for 10 min at 3000 rpm (revolutions per minute). The supernatants were then collected, diluted if necessary, and injected on to the LC-MS/MS system. […] Papp (apparent permeability expressed in nm/sec [nanometer/second]) values were calculated according to the following equation: […]
Where dQ/dt is the permeability rate, C0 is the initial concentration in the donor solution (expressed as IS ratio), A and B are the surface areas of the filter (the surface area of the cell monolayer).
Monolayer efflux ratios (ER) were derived using the following equation: […]

[8] = tested on: FADD-deficient Jurkat cells; test: Cellular necroptosis assay (human TNFα-induced); type: cell-based; settings: Homo sapiens, 48 h, read-out: Cell IC50
Procedure: Ten concentrations of the test compounds were assessed in duplicate in two different test occasions. […] The day of the experiment cells were diluted to a density of […] (5,000 cells/well) with culture medium and added (40 μL) into the 384-well plate containing 0.2 μL/well of test compounds and reference compounds (CRCs) (200×). Cell plates were then incubated at 37° C.-5% CO2. After 30 min, necroptotic cell death was induced with human TNFα (10 ng/mL) and cell viability was evaluated 48 h later by measuring cellular ATP levels using CellTiter-Glo® kit (Promega). Luminescence was read by using Victor V (Perkin Elmer) multilabel plate reader.

TNF/zVAD [9] = test: TNF-driven systemic inflammatory response syndrome model; type: in vivo; settings: 5 mg/kg orally 15 minutes before intravenous TNF/zVAD, mice
From the text: The in vivo efficacy of compounds can be determined in mice using a TNF-driven systemic inflammatory response syndrome model as described by Duprez et. al. (2011, Immunity 35(6), 908-918) and Berger et. al. (2015, Cell Death Disc. 1, 15009). In this model system TNF/zVAD (tumor necrosis factor/Z-Val-Ala-DL-Asp-fluoromethylketone, a caspase inhibitor) treatment results in temperature loss and the production of several inflammatory cytokines. The ability of a test compound to inhibit these inflammatory effects can be measured in this model by dosing mice with test compound 15 minutes before administration of TNF/zVAD and measuring the inflammatory response. The dose required to inhibit the inflammatory response is a measure of the compounds efficacy at that dose. Using this model, Compound 42 was orally pre-dosed at 5 mg/kg 15 minutes before intravenous administration of TNF/zVAD and temperature loss in the mice was measured by an implanted temperature chip. […] The decrease in dosing has a number of important potential advantages, including requiring less frequent administration to a patient, increased patient compliance, and improved safety profile such as lower toxicities while achieving similar efficacy.

GST-hRIPK1 (8-327) [10] = biological target: T1, GST-hRIPK1 (8-327) (Homo sapiens (Human), UniProt Q13546); test: Fluorescent Polarization Binding (FP Binding) assay
Procedure: Fluorescent Polarization Binding (FP Binding) assay (Berger S. B. et al. […] Maki J. L. et al. […] Test Compounds were serially diluted in DMSO at 100 fold final concentrations in the assay (1% DMSO final). […] For negative control the enzyme addition was replaced by assay buffer only. After addition of 5 μL of fluorescent labeled ligand at twice the final concentrations in assay buffer, the plate was incubated at RT for 30 min.

GST-hRIPK1 (8-327) [11] = biological target: T1, GST-hRIPK1 (8-327); test: ADP-Glo kinase assay; type: biochemical; settings: 50 μM ATP
Procedure: GST-hRIPK1 (8-327) enzyme was generated by Proteros GmbH by Baculovirus expression system.
Test compounds were diluted in DMSO and 0.1 μL of solution was dispensed to each well of a 384-well white solid microplate. The assay buffer was 50 mM HEPES pH 7.5, 50 mM NaCl, 30 mM MgCl2. The buffer was supplemented with 0.02% CHAPS, 0.01% of Pluronic F127, 0.1 mg/mL BSA and 1 mM DTT. MnCl2, 5 mM, was included in the assay buffer on the day of the experiment. The enzymatic reaction comprised 1.5 μg/mL GST-hRIPK1 (8-327) and 50 μM ATP for receptor interacting protein kinase 1 […]. 5 μL of enzyme and 5 μL of ATP were added to the plate at twice the final assay concentration and incubated at room temperature for 3 hours. Following this reaction, 10 μL of ADP-Glo reagent (Promega) was added to each well and incubated for 40 min at room temperature. This stops the kinase reaction and depletes any remaining ATP. […] The luminescence is then measured with the Envision (PerkinElmer) plate reader. Test compound inhibition was expressed as percent inhibition of internal assay controls. For concentration response curves, normalized data is fit and IC50 determined using XL-fit (IDBS) for Excel. […]
Test compound inhibition was expressed as percent inhibition of internal assay controls. For concentration response curves, normalized data is fit and IC50 determined using XL-fit (IDBS) for Excel. […]

[12] = 10 nM GST-hRIPK1 (8-327), 5 nM fluorescent labeled ligand, read-out: FP IC50

Sequence of P-gp (P-glycoprotein, MDR1) (P08183 whole entry): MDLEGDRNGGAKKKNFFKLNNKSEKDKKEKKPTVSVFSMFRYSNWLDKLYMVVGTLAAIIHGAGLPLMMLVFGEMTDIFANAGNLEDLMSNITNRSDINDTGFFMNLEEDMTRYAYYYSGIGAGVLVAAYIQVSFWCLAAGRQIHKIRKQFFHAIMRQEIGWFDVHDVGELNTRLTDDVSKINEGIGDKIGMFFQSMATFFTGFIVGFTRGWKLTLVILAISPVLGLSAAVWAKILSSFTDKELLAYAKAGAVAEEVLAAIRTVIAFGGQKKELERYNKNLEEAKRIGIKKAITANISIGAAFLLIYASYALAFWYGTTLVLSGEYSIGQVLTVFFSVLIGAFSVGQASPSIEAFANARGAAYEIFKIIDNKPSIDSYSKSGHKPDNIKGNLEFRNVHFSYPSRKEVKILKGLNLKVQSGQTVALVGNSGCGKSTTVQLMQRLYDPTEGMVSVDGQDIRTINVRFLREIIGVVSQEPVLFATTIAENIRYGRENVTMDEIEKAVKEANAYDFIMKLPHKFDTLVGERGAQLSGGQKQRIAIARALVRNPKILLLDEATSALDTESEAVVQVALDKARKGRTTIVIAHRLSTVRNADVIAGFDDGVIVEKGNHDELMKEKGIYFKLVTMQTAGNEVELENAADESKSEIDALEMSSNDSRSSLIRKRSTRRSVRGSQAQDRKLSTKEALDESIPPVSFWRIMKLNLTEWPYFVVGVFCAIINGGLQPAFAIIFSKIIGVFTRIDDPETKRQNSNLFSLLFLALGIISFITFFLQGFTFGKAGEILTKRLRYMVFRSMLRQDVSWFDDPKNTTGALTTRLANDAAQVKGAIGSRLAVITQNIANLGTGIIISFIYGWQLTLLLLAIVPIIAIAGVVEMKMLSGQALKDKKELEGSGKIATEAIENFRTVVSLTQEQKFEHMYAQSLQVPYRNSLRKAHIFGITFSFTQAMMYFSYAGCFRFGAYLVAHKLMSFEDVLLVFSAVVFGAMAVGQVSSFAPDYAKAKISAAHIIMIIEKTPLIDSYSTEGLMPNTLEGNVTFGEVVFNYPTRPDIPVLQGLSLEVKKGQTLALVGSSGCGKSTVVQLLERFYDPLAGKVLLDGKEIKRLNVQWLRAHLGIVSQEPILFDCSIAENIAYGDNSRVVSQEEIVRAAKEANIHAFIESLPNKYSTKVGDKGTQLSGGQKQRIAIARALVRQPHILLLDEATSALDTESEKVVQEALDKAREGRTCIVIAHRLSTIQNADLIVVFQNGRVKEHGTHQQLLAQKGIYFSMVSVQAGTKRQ
T1 sequence (Q13546 8-327): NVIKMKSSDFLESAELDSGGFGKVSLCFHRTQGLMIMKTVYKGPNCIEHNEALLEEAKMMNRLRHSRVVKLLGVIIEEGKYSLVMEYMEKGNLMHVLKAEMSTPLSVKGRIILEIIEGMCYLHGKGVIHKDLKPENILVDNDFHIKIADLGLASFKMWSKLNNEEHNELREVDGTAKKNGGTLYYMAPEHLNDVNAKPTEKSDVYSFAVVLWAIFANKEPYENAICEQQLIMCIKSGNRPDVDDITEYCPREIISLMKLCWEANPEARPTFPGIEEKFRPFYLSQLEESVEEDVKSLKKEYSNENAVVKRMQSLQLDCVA

Row | Cyno unbound CL [1] [mL/min/kg] | Human hepatocyte CLhep Avg [2] [mL/min/kg] | Rat unbound CL [5] [mL/min/kg] | Dog unbound CL [6] [mL/min/kg] | efflux ratio at 90 min, 3 μM [7] | IC50 (GST-hRIPK1 (8-327) [10]; [12]) [nM] | Structure (SMILES) | other results
1 | 117 | 6.8 | 77 | 240 | 6.4 | – | CN1C(=O)[C@@H](NC(=O)c2nnc(Cc3ccccc3)[nH]2)COc2ccccc21 [A, reference compound] | inhibition of temperature loss (TNF/zVAD [3]): 93%; clearance as % of liver blood flow [4]: approximately 32%
2 | – | 19 | – | – | 0.9 | – | CN1C(=O)[C@@H](NC(=O)c2cc(Cc3ccccc3)on2)COc2ccccc21 [C, reference compound] | –
3 | – | – | – | – | – | – | O=C(N[C@H]1COC[C@H]2CCCN2C1=O)c1nnc(Cc2ccccc2)[nH]1 [Example 65, N-[(4S,9aR)-5-oxo-octahydropyrrolo[2,1-c][1,4]oxazepin-4-yl]-5-benzyl-4H-1,2,4-triazole-3-carboxamide] | IC50 (GST-hRIPK1 (8-327) [11]): > 10000 nM
4 | 116 | 6.3 | 113 | 36 | 1.6 | 0.1 to 1000 | CN1C(=O)[C@@H](NC(=O)c2nnc(C3(c4ccccc4)CC3)o2)COc2cccnc21 [Example 66, (S)—N-(5-methyl-4-oxo-2,3,4,5-tetrahydropyrido[3,2-b][1,4]oxazepin-3-yl)-5-(1-phenylcyclopropyl)-1,3,4-oxadiazole-2-carboxamide] | –
5 | 93 | 9.1 | 91 | – | 24 | 0.1 to 1000 | CN1C(=O)[C@@H](NC(=O)c2nnc(Cc3ccccc3)[nH]2)[C@H]2C[C@H]2c2cccnc21 [Example 75A, 5-benzyl-N-((1aS,2S,8bR)-4-methyl-3-oxo-1,1a,2,3,4,8b-hexahydrocyclopropa[d]pyrido[2,3-b]azepin-2-yl)-4H-1,2,4-triazole-3-carboxamide] | –
6 | – | 19 | 595 | – | 0.6 | 0.1 to 1000 | CN1C(=O)[C@@H](NC(=O)c2cc(C3(c4ccccc4)CC3)on2)COc2cccnc21 [Example 77, (S)—N-(5-methyl-4-oxo-2,3,4,5-tetrahydropyrido[3,2-b][1,4]oxazepin-3-yl)-5-(1-phenylcyclopropyl)isoxazole-3-carboxamide] | –
7 | 39 | – | 61 | – | 1 | – | CN1C(=O)[C@@H](NC(=O)c2nnc(Cc3ccccc3)o2)COc2cccnc21 [Example 146, (S)-5-benzyl-N-(5-methyl-4-oxo-2,3,4,5-tetrahydropyrido[3,2-b][1,4]oxazepin-3-yl)-1,3,4-oxadiazole-2-carboxamide] | IC50 ([8]; human TNFα 10 ng/mL, viability after 48 h): 0.7 nM

Row | Structure (SMILES) | Cyno unbound CL [1] [mL/min/kg] | Human hepatocyte CLhep Avg [2] [mL/min/kg] | Rat unbound CL [5] [mL/min/kg] | Dog unbound CL [6] [mL/min/kg] | efflux ratio at 90 min, 3 μM [7] | IC50 (GST-hRIPK1 (8-327) [10]; [12]) [nM] | other results
8 | CN1C(=O)[C@@H](NC(=O)c2nnc(Cc3ccccc3)o2)COc2ccccc21 [B, reference compound] | – | 14 | – | – | 1 | – | –
9 | CN1C(=O)[C@@H](NC(=O)c2nnc(Cc3ccccc3)[nH]2)COc2cccnc21 [Example 42, (S)-5-benzyl-N-(5-methyl-4-oxo-2,3,4,5-tetrahydropyrido[3,2-b][1,4]oxazepin-3-yl)-4H-1,2,4-triazole-3-carboxamide] | 42 | 0.8 | 22 | 64 | 19 | – | clearance as % of liver blood flow [4]: less than 4%; IC50 [8]: 0.1 to 1000 nM; inhibition of temperature loss (TNF/zVAD [9]): 96%; IC50 (GST-hRIPK1 (8-327) [10]): 0.1 to 1000 nM
10 | O=C(N[C@@H]1C(=O)Nc2c(F)cc(F)cc2[C@@H]2C[C@H]12)c1nnc(Cc2ccccc2)[nH]1 [Example 83A, 5-benzyl-N-((1aS,2S,8bR)-5,7-difluoro-3-oxo-1,1a,2,3,4,8b-hexahydrobenzo[b]cyclopropa[d]azepin-2-yl)-4H-1,2,4-triazole-3-carboxamide] | 82 | 1.0 | 116 | – | 29 | 0.1 to 1000 | –
